What was measured:
[1] = Pharmacokinetic study in rats after oral administration; assay type: in vivo, SD rats
Protocol: Experimental Example 5: Pharmacokinetic Studies of the Compounds of Example 1, Example 1-a, Example 1-b and Example 3 in Rats In order to investigate the blood concentration and pharmacokinetic parameters of the compounds of the present invention after oral administration, the corresponding LC/MS/MS assay and plasma treatment methods were developed for the compounds of the Experimental Examples. […] Male SD rats were orally administered at a dose of 5 mg/kg. Blood was orbitally collected and anticoagulated with sodium heparin. The plasma was deproteinated with acetonitrile. The samples were analyzed by LC/MS/MS method. Wherein, AUC<1000 μg/L*h is shown as C, AUC between 1000-2000 μg/L*h is shown as B, AUC>2000 μg/L*h is shown as A; Cmax<600 μg/L is shown as C, Cmax between 600-900 μg/L is shown as B, and Cmax>900 μg/L is shown as A.

[2] = system: IFN-2α-stimulated TYK2/JAK1-mediated pathway (pSTAT3); assay: Inhibition of STAT3 signaling pathway of human whole blood (IFN-2α-induced pSTAT3, flow cytometry); assay type: cell-based
Protocol: Test Example 3: Inhibition Effect of the Compounds of the Present Invention on STAT3 Signaling Pathway of Human Whole Blood
Sample preparation: The compounds of the present invention and the control were dissolved in DMSO solvent respectively to formulate into 10 mM initial liquid. The maximum concentration of the compound was 10 μM, 3-fold dilution, 10 concentration gradients, and duplicate wells for each concentration gradient.
Experimental process: 20 μL of the compound of the present invention was added to a flow cytometer tube (BD, 352052) containing 180 μL anticoagulant sodium heparin. 20 μL PBS was added to the control. The sample was incubated at 37° C. for 30 min. 2 μL stimulating factor was added and then incubated at 37° C. for 20 min. 1 mL erythrocyte lysate was rapidly added, and the sample was repeatedly inverted 5-10 times or vortexed and then incubated at 37° C. for 10 min. The sample was centrifuged at 600 g for 6-8 min. The supernatant was discarded. The precipitate was vortexed until suspending. The cells were washed with 3 mL PBS and centrifuged at 600 g for 6-8 min. The supernatant was discarded. The precipitate was vortexed until suspending. 1 mL of membrane breaking solution was added, and the system was mixed gently, incubated on ice for 30 min, and centrifuged at 600 g for 6-8 min. The supernatant was discarded. The precipitate was vortexed until suspending. The cells were washed. 3 mL PBS was added. The system was centrifuged at 600 g for 6-8 min. The supernatant was discarded. The precipitate was vortexed untile suspending. The process was repeated twice. 100 μL PBS was added to each staining tube. IFN-2a was added for stimulation, and CD3 and pSTAT3 antibodies […] were added. The system was mixed well, protected from light and incubated at room temperature for 60 min. The cells were washed. 3 mL PBS was added. The system was centrifuged at 600 g for 6-8 min. The supernatant was discarded. The precipitate was vortexed until suspending. The precipitate was suspended in 150 μL in the dark for the flow cytometry analysis. The IC50 (half inhibitory concentration) of the compounds was obtained by using the following non-linear fitting equation:
Y=Bottom+(Top−Bottom)/(1+10^((Log IC50−X)*HillSlope));
X: Log value of the concentration of the compound;
Bottom: The minimum value, Top: The maximum value, HillSlope: Slope
The inhibition effect of by the compounds of the present invention on the IFN-2α-stimulated TYK2/JAK1-mediated pathway is shown in Table 3. IC50 value of 0-100 nM is shown as A, IC50 value of 100-300 nM is shown as B, IC50 value of 300-1000 nM is shown as C, IC50 value which is greater than 1000 nM is shown as D. NT means not tested.

[3] = target: T1, TYK2 kinase (Homo sapiens, UniProt P29597); assay: In vitro inhibitory activity on Tyk2 kinase (ADP-Glo Kinase Assay); assay type: biochemical; settings: TYK2 kinase 4 nM, 1 mM ATP
T1 sequence (P29597 897-1187 limits assumed): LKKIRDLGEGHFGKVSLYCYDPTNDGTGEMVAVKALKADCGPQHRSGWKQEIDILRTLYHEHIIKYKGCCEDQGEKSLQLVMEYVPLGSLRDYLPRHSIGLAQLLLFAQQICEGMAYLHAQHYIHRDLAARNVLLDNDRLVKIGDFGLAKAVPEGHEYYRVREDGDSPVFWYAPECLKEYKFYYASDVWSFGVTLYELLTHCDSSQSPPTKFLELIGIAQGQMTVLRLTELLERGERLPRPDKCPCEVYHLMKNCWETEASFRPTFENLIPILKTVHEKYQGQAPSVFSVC
Protocol: Test Example 2: Determination of In Vitro Inhibitory Activity of the Compounds of the Present Invention on Tyk2 Kinase Experimental materials: TYK2 (Invitrogen, PV4790), ATP (Promega, V915B), ADP-Glo Kinase Assay (Promega, V9101), IRS1 (Signalchem, 140-58-1000). Sample preparation: The compounds of the present invention and the control product were dissolved in DMSO solvent respectively to formulate into 10 mM initial liquid. The maximum concentration of the compound was 10 μM, 3-fold dilution, 10 concentration gradients, and duplicate wells for each concentration gradient. Experimental process: 0.1 μL of the compound to be tested was transferred into a 384 reaction plate (PE, 6007290) via Echo and centrifuged at 1000 rpm/min for 1 min. 5 μL TYK2 kinase (final concentration of 4 nM) was transferred into the 384 reaction plate, which was then centrifuged at 1000 rpm/min for 1 min, and incubated at 25° C. for 15 min. 5 μL substrate mixture (1 mM ATP, IRS1 0.05 mg/ml, kinase buffer solution) was transferred into the 384 reaction plate, which was then centrifuged at 1000 rpm/min for 1 min, and incubated at 25° C. for 60 min. 10 μL ADP-Glo was transferred into the 384 reaction plate, which was then centrifuged at 1000 rpm/min for 1 min, and incubated at 25° C. for 40 min. 20 μL test solution was transferred into the 384 reaction plate, which was centrifuged at 1000 rpm/min for 1 min and incubated at 25° C. for 40 min. RLU (Relative luminescence unit) signal was read by using an Envision multifunctional plate reader. The signal intensity was used to characterize the degree of the kinase activity. […] IC50 value of 0-100 nM is shown as A, IC50 value of 100-300 nM is shown as B, IC50 value of 300-1000 nM is shown as C, and IC50 value which is greater than 1000 nM is shown as D. NT means not tested.

[4] = target: T2, JAK1 kinase (Homo sapiens, UniProt P23458); assay: In vitro inhibitory activity on JAK1 kinase (ADP-Glo Kinase Assay); assay type: biochemical; settings: JAK1 kinase 4 nM, 1 mM ATP
T2 construct: purchased Invitrogen PV4744
T2 sequence (P23458 866-1154 limits assumed): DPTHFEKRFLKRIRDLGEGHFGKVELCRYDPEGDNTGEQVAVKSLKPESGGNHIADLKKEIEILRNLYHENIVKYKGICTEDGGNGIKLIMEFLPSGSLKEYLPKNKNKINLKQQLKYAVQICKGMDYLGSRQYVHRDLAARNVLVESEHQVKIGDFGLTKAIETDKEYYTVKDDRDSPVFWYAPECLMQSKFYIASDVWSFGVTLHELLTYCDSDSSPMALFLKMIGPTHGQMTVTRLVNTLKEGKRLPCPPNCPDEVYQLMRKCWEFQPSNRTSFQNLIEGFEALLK
Procedure, shortened: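 JAK1 (4 nM final) preincubated with compound 15 min at 25° C., then substrate mix (1 mM ATP, IRS1 0.05 mg/ml) added for 60 min at 25° C. ADP-Glo luminescence read-out; top concentration 10 μM, 3-fold, 10 points, duplicates; IC50 reported in ranged classes.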

[5] = rat, male SD rats, oral 5 mg/kg, plasma

SMILES: Cn1cc(Nc2nccc(C3=C[C@@H]4CC[C@H](C3)N4C(=O)[C@@H]3CC3(F)F)n2)cn1 (single isomer, unassigned) [Compound 1-a]
- pharmacokinetic parameters (in words) ([1]; oral administration in SD rats): good pharmacokinetic parameters
- AUC(0-t) [1, 5]: 1000 to 2000 ng·h/mL
- Cmax [1, 5]: 600 to 900 ng/mL
- IC50 [2]: < 100 nM
- IC50 [3]: < 100 nM
- IC50 [4]: < 100 nM

Reference: patent publication US20220348572A1, “BRIDGED HETEROCYCLYL-SUBSTITUTED PYRIMIDINE COMPOUND, PREPARATION METHOD THEREFOR, AND PHARMACEUTICAL USE THEREOF” (The National Institutes of Pharmaceutical R&D Co., Ltd., priority 2019, published 2022)
